Assay results as given in the Deep4Chem optical property database.
Blank lines part the entries; values can stand above or below the molecule they belong to.

Experiment: solvent given as SMILES

absorption maximum (in ClCCl): 468 nm
SMILES: CCCCCCn1c2cc(C=O)sc2c2sc3c(sc4c5sc(C=O)cc5n(CCCCCC)c43)c21

absorption maximum (in ClC(Cl)Cl): 661 nm
SMILES: CN1C(=CC2=C([S-])C(=Cc3sc4ccccc4[n+]3C)C2=O)C(C)(C)c2ccccc21

absorption maximum (in CCO): 393 nm | absorption maximum (in ClC(Cl)Cl): 394 nm
SMILES: CCOc1ccc2c(-c3nc(-c4ccccc4Cl)no3)cc(=O)oc2c1

absorption maximum (in C1CCCCC1): 400 nm | absorption maximum (in CC#N): 431 nm | absorption maximum (in CCO): 437 nm | absorption maximum (in c1ccccc1): 420 nm
SMILES: CN(C)c1ccc2c(c1)-c1ccccc1C2=O

absorption maximum (in ClC(Cl)Cl): 432 nm
SMILES: F[B-]1(F)OC(c2cccc(Br)c2)=Cc2c3ccccc3c3ccccc3[n+]21

absorption maximum (in ClCCl): 389 nm
SMILES: CCCCCCN1C(=O)c2cccc3c(-c4ccc(-c5cc(-c6ccc(C)cc6)nn5-c5ccccc5)s4)ccc(c23)C1=O

absorption maximum (in O): 455 nm
SMILES: CCOC(=O)CCCCCn1c2ccc(N)cc2c(=O)c2cc(N)ccc21

absorption maximum (in C1CCCCC1): 456 nm | absorption maximum (in C1CCOC1): 459.98 nm | absorption maximum (in CN(C)C=O): 457.04 nm | absorption maximum (in CO): 458.09 nm | absorption maximum (in ClC(Cl)Cl): 459.98 nm | absorption maximum (in c1ccccc1): 458.09 nm
SMILES: CC1(C)Cc2c(c3ccccc3c3nc4ccccc4nc23)O1

absorption maximum (in CCO): 379 nm
SMILES: Cc1c(C)n2c(COC(=O)c3ccccc3O)c(C)c(=O)n2c1=O

absorption maximum (in CO): 574 nm | absorption maximum (in ClC(Cl)Cl): 595 nm
SMILES: Cc1nc2c(ccc3c2sc(/C=C/c2cc4c5c(c2)CCCN5CCC4)[n+]3C)s1

absorption maximum (in CC1CCCCC1): 327 nm | absorption maximum (in CC#N): 333 nm | absorption maximum (in CO): 335 nm
SMILES: COC(=O)C(NC(=O)OC(C)(C)C)c1ccc2oc(-c3cc(OC)c(OC)cc3OC)nc2c1 (configuration not stated)

absorption maximum (in CCO): 612 nm | absorption maximum (in ClCCl): 619 nm | absorption maximum (in O): 604 nm
SMILES: CC[N+](CC)=c1ccc2cc3c(oc-2c1)-c1ccc(N(C)C)cc1CC3

absorption maximum (in C1CCCCC1): 319 nm
SMILES: CCCC1(CCC)c2cc(C#N)ccc2-c2ccc(C#N)cc21

absorption maximum (in ClC(Cl)Cl): 654 nm
SMILES: CC1(C)C(/C=C2\C(=O)C(/C=C3\Nc4ccccc4C3(C)C)=C2[O-])=[NH+]c2ccccc21

absorption maximum (in CC1CCCO1): 460 nm
SMILES: CCCCCCOc1cc2cc(=O)oc3ccc4cccc1c4c23

The next lines start with the molecule.

SMILES: C1=C(c2ccccn2)[Si](c2ccccc2)(c2ccccc2)c2ccccc21
absorption maximum (in ClCCl): 339 nm

SMILES: CCN1c2ccc(/C=N/Nc3ccccn3)cc2Sc2cc(-c3ccc(C#N)cc3)ccc21
absorption maximum (in C1CCOC1): 383 nm | absorption maximum (in CS(C)=O): 398 nm | absorption maximum (in Cc1ccccc1): 386 nm | absorption maximum (in ClCCl): 388 nm

SMILES: C(/C=C/c1ccc(-n2c3ccccc3c3ccccc32)cc1)=C\c1ccncc1
absorption maximum (in C1COCCO1): 356 nm | absorption maximum (in CC#N): 350 nm | absorption maximum (in CCCCCCC): 360 nm | absorption maximum (in CO): 353 nm

SMILES: CC[N+]1(CC)CN2C(=N1)C(C(=O)O)=Cc1cc(C)ccc12
absorption maximum (in O): 379 nm

SMILES: CN(c1ccccc1)c1ccc(/C=C2\C(=O)c3ccccc3S2(=O)=O)cc1
absorption maximum (in C1CCOC1): 468 nm | absorption maximum (in C1COCCO1): 466 nm | absorption maximum (in CC#N): 471 nm | absorption maximum (in CC(C)=O): 470 nm | absorption maximum (in CCOC(C)=O): 465 nm | absorption maximum (in CN(C)C=O): 478 nm | absorption maximum (in CO): 475 nm | absorption maximum (in CS(C)=O): 483 nm | absorption maximum (in Cc1ccccc1): 472 nm | absorption maximum (in ClC(Cl)Cl): 479 nm | absorption maximum (in ClCCl): 476 nm

SMILES: N#Cc1nc(N(Cc2ccc(I)cc2)Cc2ccc(I)cc2)c(C#N)nc1N(Cc1ccc(I)cc1)Cc1ccc(I)cc1
absorption maximum (in ClC(Cl)Cl): 484 nm

SMILES: C[Si](C)(C)c1ccc([Si](C)(C)C)c2ccccc12
absorption maximum (in C1CCCCC1): 300 nm

SMILES: Cc1cc(C)c([B-]2(c3c(C)cc(C)cc3C)[O+]=P(c3ccccc3)(c3ccccc3)c3cc(-c4ccc(C(F)(F)F)cc4)sc3-c3sc(-c4ccc(C(F)(F)F)cc4)cc32)c(C)c1
absorption maximum (in C1CCOC1): 405 nm

SMILES: CCOC(=O)CN1C(=O)C2=C(c3ccc(N4CCCCC4)cc3)N(CC(=O)OCC)C(=O)C2=C1c1ccccc1
absorption maximum (in CC#N): 500 nm | absorption maximum (in CS(C)=O): 516 nm | absorption maximum (in Cc1ccccc1): 499 nm

SMILES: COc1cc(OC)c2c(c1)c1c(c3ccc(C(C)(C)C)cc32)=[N+]2C(=Nc3c(-c4cc(OC)c(OC)c(OC)c4)c4c5cc(OC)cc(OC)c5c5cc(C(C)(C)C)ccc5c4n3[B-]2(F)F)C=1c1cc(OC)c(OC)c(OC)c1
absorption maximum (in Cc1ccccc1): 791 nm

SMILES: COc1c(-c2ccc(N(C)C)cc2)oc2ccccc2c1=O
absorption maximum (in C1CCCCC1): 361 nm | absorption maximum (in CC#N): 375 nm | absorption maximum (in CCOC(C)=O): 372 nm

SMILES: CCC1(CC)c2cc(-c3ccc(N(c4ccc(-c5ccc6c(c5)C(CC)(CC)c5cc(N7c8ccccc8C(C)(C)c8ccccc87)ccc5-6)cc4)c4ccc(-c5ccc6c(c5)C(CC)(CC)c5cc(N7c8ccccc8C(C)(C)c8ccccc87)ccc5-6)cc4)cc3)ccc2-c2ccc(N3c4ccccc4C(C)(C)c4ccccc43)cc21
absorption maximum (in ClC(Cl)Cl): 366 nm

SMILES: CC1(C)c2ccccc2N(c2ccc(-c3nc(C#N)c(C#N)nc3-c3ccc(N4c5ccccc5C(C)(C)c5ccccc54)cc3)cc2)c2ccccc21
absorption maximum (in Cc1ccccc1): 436 nm

SMILES: CN(C)c1ccc(C#Cc2ccccc2)cc1
absorption maximum (in C1CCCCC1): 316.9 nm | absorption maximum (in C1CCOC1): 328.8 nm | absorption maximum (in C1COCCO1): 326.61 nm | absorption maximum (in CC1CCCO1): 327.1 nm | absorption maximum (in CC(C)=O): 329.4 nm | absorption maximum (in CC(C)CC(C)(C)C): 315 nm | absorption maximum (in CC(C)O): 321.4 nm | absorption maximum (in CCCCCCCCCCCCCCCC): 316.9 nm | absorption maximum (in CCCCCCCCCCCCCCCCCl): 330 nm | absorption maximum (in CO): 324 nm | absorption maximum (in Cc1ccccc1): 326.3 nm

SMILES: c1ccc(-c2nc(-c3ccc(-c4ccc(-c5ccc(-c6nc(-c7ccccc7)c(-c7ccccc7)o6)cc5)cc4)cc3)oc2-c2ccccc2)cc1
absorption maximum (in C1COCCO1): 352 nm

SMILES: CCCCCCCCCCCCOc1cc(C(=O)Nc2ccc(-c3ccc4c(c3)C(=O)c3ccccc3-4)cc2)cc(OCCCCCCCCCCCC)c1OCCCCCCCCCCCC
absorption maximum (in C1CCOC1): 432 nm

SMILES: CC1(C)c2ccccc2N(c2ccccc2)c2ccc(C(=O)c3ccc4c(c3)C(C)(C)c3ccccc3N4c3ccccc3)cc21
absorption maximum (in Cc1ccccc1): 371.57 nm

SMILES: CC1(C)CC(=O)c2cc(F)c(F)cc2N1
absorption maximum (in CC#N): 369 nm | absorption maximum (in CCO): 381 nm

SMILES: Fc1cc(-c2ccc(-c3nc4ccccc4[nH]3)cc2)ccc1-c1ccc(-c2nc3ccccc3[nH]2)cc1
absorption maximum (in CN(C)C=O): 343 nm

SMILES: Cc1ccc(C2=C3C=CC(Oc4ccccc4)=[N+]3[B-](F)(F)n3c(Oc4ccccc4)ccc32)cc1
absorption maximum (in C1CCOC1): 516 nm

SMILES: CC(C)c1cc(C(C)C)c(B2c3cc(N4c5ccccc5Oc5ccccc54)ccc3N(c3ccccc3)c3ccc(N4c5ccccc5Oc5ccccc54)cc32)c(C(C)C)c1
absorption maximum (in C1CCCCC1): 372.79 nm

SMILES: c1ccc([B-]23Oc4ccccc4-c4c5[n+]6c(c([n+]42)-c2ccccc2O3)-c2ccccc2O[B-]6(c2ccccc2)Oc2ccccc2-5)cc1
absorption maximum (in ClCCl): 574 nm

SMILES: Fc1cccc(F)c1[B-]1(c2c(F)cccc2F)Oc2c(ccc3c4c(ccc23)C=[N+](c2ccccc2)[B-](c2c(F)cccc2F)(c2c(F)cccc2F)O4)C=[N+]1c1ccccc1
absorption maximum (in Cc1ccccc1): 538 nm | absorption maximum (in ClCCl): 534 nm

SMILES: CCCCN1\C(=C/C=C/C=C/C2=[N+](CCCC)c3ccc4cc(Br)ccc4c3C2(C)C)C(C)(C)c2c1ccc1cc(Br)ccc21
absorption maximum (in C1CCOC1): 685 nm | absorption maximum (in CC#N): 682 nm | absorption maximum (in CC(C)=O): 685 nm | absorption maximum (in CCO): 688 nm | absorption maximum (in CN(C)C=O): 689 nm | absorption maximum (in CO): 683 nm | absorption maximum (in CS(C)=O): 692 nm | absorption maximum (in ClCCl): 699 nm
